Experimental data: ChEMBL document CHEMBL1909046, “DrugMatrix in vitro pharmacology data”

Key:
[1] = target: Cannabinoid receptor 1 (Homo sapiens, UniProt P21554); assay type: cell membranes, Chem-1, Membrane; conditions: chem-1; note: in other assays of this panel Not Active means under 50% inhibition at 10 µM
[2] = target: T1, C-C chemokine receptor type 4 (Homo sapiens, UniProt P51679); assay type: cell membranes, Membrane; conditions: chem-1; note: in other assays of this panel Not Active means under 50% inhibition at 10 µM
T1 sequence (P51679 whole entry): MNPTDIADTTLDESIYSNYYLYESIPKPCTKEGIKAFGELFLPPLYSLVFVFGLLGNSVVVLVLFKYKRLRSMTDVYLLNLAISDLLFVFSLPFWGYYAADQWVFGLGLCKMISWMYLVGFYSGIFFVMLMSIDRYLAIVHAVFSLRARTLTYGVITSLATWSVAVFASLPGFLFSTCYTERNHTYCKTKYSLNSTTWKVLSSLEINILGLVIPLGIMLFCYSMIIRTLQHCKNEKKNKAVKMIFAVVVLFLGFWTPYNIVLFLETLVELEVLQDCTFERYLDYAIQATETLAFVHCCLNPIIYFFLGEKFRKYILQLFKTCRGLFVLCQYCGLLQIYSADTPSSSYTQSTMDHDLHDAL

[3] = DRUGMATRIX: GABAA, Muscimol, Central radioligand binding (ligand: [3H] Muscimol); assay type: cell membranes, Rattus norvegicus, Wistar, Brain, Membrane; conditions: Not Active = under 50% inhibition at 10 µM
[4] = target: T2, Muscarinic acetylcholine receptor M2 (Homo sapiens, UniProt P08172); assay type: cell membranes, CHO-K1, Membrane; conditions: cho-k1; note: in other assays of this panel Not Active means under 50% inhibition at 10 µM
T2 sequence (P08172 whole entry): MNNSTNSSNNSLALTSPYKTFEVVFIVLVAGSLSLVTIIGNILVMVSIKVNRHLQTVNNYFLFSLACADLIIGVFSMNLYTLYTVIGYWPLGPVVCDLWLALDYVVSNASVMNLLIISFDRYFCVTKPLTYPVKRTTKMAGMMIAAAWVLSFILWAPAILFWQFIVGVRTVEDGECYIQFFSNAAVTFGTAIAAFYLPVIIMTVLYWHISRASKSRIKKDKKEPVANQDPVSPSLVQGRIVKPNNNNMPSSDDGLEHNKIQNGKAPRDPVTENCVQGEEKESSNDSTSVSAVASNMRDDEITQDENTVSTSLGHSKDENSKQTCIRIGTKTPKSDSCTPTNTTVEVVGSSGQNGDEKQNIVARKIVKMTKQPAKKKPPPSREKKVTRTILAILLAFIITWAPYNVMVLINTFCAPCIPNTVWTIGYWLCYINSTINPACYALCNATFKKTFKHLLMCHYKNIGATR

[5] = target: Mitogen-activated protein kinase 1 (Homo sapiens, UniProt P28482); test: DRUGMATRIX: Protein Serine/Threonine Kinase, ERK2 enzyme inhibition (substrate: Myelin Basic Protein); design: species or system Escherichia coli; conditions: Not Active = under 50% inhibition at 10 µM
Chain of Mitogen-activated protein kinase 1 (P28482 whole entry): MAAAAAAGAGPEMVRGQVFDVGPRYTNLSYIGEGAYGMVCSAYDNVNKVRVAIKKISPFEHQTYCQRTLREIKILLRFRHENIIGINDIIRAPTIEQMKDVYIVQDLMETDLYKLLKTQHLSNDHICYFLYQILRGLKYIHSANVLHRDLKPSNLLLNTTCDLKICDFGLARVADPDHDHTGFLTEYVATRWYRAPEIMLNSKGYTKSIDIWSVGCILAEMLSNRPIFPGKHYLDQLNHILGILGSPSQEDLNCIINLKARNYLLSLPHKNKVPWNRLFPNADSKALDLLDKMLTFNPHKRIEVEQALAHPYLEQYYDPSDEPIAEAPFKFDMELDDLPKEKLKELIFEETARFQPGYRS

[6] = target: T3, Cytochrome P450 1A2 (Homo sapiens, UniProt P05177); conditions: bti-tn-5b1-4; note: in other assays of this panel Not Active means under 50% inhibition at 10 µM
T3 sequence (P05177 whole entry): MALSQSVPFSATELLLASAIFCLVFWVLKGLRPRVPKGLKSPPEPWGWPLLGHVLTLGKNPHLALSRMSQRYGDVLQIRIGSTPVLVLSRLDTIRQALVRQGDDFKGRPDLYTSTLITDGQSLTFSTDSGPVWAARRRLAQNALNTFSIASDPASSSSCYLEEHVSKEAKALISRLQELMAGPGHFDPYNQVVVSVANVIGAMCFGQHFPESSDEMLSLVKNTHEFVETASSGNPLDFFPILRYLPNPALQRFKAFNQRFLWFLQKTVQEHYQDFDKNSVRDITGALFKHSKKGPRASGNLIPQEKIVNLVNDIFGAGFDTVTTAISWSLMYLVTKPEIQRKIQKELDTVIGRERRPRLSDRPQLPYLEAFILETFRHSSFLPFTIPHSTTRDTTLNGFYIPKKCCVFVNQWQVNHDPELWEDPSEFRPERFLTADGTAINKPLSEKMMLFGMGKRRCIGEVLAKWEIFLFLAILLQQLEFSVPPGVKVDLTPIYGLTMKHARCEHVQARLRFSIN

[7] = target: Cytochrome P450 2D6 (Homo sapiens, UniProt P10635); conditions: bti-tn-5b1-4; note: in other assays of this panel Not Active means under 50% inhibition at 10 µM
Chain of Cytochrome P450 2D6 (P10635 whole entry): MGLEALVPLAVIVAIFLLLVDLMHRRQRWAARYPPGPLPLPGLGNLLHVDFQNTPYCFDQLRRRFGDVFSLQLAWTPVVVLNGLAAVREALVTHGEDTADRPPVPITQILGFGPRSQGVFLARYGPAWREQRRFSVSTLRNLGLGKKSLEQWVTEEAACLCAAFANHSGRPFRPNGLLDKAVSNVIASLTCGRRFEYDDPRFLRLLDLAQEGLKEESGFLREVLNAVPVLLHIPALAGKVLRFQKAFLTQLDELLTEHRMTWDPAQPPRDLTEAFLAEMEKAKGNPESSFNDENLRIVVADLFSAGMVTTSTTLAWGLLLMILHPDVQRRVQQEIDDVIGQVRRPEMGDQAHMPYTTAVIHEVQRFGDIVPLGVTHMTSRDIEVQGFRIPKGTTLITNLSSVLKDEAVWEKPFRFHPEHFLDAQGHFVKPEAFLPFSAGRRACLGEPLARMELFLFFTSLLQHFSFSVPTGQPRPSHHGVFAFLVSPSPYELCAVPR

Chain of Cannabinoid receptor 1 (P21554 whole entry): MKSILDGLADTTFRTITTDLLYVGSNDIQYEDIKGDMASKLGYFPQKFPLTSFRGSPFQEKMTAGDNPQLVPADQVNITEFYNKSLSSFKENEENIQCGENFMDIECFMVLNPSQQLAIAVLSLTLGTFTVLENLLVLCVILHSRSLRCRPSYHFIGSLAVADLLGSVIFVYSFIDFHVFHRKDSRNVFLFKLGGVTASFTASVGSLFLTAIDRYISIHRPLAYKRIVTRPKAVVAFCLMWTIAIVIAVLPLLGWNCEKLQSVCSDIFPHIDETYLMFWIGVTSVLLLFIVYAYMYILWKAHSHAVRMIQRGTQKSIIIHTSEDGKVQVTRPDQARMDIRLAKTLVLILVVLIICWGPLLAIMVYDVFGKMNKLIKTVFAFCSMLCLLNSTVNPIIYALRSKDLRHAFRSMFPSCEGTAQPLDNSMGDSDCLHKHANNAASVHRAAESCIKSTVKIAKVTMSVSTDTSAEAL

COc1ccc2[nH]c([S+]([O-])Cc3ncc(C)c(OC)c3C)nc2c1 (stereo not given) [OMEPRAZOLE]
Not Active: IC50 [1] | IC50 [2] | IC50 [3] | Ki [3] | IC50 [4] | IC50 [5] | IC50 [6] | Ki [6] | IC50 [7] | Ki [7]
